Data taken from patent US20250215029A1 (Recludix Pharma, Inc., priority 2022, published 2025).
Read-outs that look alike come from different tables or passages of the source.

Columns and labels:
[1] = target: T1, Recombinant STAT3 protein (STAT3 (G127-I722)) (Homo sapiens, UniProt P40763); assay: STAT3 Fluorescence Polarization (FP) Assay; type: binding; details: probe 5-FAM-GpYLPQTV-NH2 2 nM, 45-minute incubation
T1 construct: Recombinant STAT3 protein (STAT3 (G127-I722))
Procedure, shortened: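 Read-out is fluorescence polarization (mP) after 45 min at room temperature, with IC50 fitted by nonlinear regression against log compound concentration. Mixture: 25 nM STAT3 (G127-I722), 2 nM 5-FAM-GpYLPQTV-NH2 phosphopeptide, 10 mM HEPES pH 7.4 buffer, 1% DMSO.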

[2] = target: T2, Recombinant STAT6 protein (STAT6 (W123-T658)) (Homo sapiens, UniProt P42226); assay: STAT6 Fluorescence Polarization (FP) Assay; type: binding; details: probe 5-FAM-Ap[…]-NH2 2 nM, 45-minute incubation
T2 construct: Recombinant STAT6 protein (STAT6 (W123-T658))
T2 sequence (P42226 123-658): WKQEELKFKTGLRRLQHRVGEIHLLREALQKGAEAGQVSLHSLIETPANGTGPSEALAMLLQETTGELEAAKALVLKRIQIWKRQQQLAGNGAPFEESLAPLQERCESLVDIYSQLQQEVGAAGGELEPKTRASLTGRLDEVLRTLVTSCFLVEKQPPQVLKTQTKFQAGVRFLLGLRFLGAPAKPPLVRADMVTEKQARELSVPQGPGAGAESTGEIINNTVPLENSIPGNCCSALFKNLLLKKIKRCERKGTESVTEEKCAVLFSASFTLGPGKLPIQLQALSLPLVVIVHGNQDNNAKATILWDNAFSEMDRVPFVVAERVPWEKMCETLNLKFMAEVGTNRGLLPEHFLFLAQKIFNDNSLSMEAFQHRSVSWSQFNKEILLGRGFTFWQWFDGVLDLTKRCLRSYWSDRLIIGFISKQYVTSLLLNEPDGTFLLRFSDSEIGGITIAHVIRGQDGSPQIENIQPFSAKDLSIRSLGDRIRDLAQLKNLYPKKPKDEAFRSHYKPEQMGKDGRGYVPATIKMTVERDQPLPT
Procedure, shortened: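 Competitive FP binding: recombinant STAT6 (W123-T658) at 250 nM, labeled phosphotyrosine peptide at 2 nM, compounds at 1% DMSO, 45 min at RT before reading. IC50 values were obtained from nonlinear regression of mP versus log concentration.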

[3] = STAT3 25 nM, read-out: STAT3 (FP assay IC50)
[4] = STAT6 250 nM, read-out: STAT6 (FP assay IC50)
[5] = STAT3 (G127-I722) 25 nM, read-out: STAT3 (FP assay IC50 class)
[6] = STAT6 (W123-T658) 250 nM, read-out: STAT6 (FP assay IC50 class)

T1 sequence (P40763 127-722): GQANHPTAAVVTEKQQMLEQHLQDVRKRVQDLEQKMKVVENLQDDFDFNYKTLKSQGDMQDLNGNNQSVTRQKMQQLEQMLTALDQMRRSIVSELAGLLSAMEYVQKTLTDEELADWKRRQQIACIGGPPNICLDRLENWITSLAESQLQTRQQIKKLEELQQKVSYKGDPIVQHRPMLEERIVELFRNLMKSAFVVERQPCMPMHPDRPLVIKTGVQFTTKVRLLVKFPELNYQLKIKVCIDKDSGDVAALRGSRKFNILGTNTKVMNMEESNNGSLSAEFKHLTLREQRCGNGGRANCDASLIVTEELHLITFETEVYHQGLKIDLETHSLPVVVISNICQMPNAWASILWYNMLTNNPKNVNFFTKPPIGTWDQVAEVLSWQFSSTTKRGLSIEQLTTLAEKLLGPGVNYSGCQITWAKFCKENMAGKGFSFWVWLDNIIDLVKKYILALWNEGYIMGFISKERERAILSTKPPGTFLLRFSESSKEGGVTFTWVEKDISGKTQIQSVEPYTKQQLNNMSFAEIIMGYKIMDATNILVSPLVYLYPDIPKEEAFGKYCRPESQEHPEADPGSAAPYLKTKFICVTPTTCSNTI

Structure (SMILES): O=C(N[C@H]1CCC[C@H]2CC[C@@H](C(=O)N3CC(c4cccnc4)C3)N2C1=O)c1cc2cc(C(F)(F)P(=O)(O)O)ccc2s1 [Compound 33, (difluoro(2-(((3S,6S,9S)-5-oxo-3-(3-(pyridin-3-yl)azetidine-1-carbonyl)octahydro-1H-pyrrolo[1,2-a]azepin-6-yl)carbamoyl)benzo[b]thiophen-5-yl)methyl) phosphonic acid]
- IC50 [1, 3]: < 100 nM
- IC50 [2, 4]: 300 to 3000 nM

Structure (SMILES): N#C[C@@H]1CN(C(=O)[C@@H]2CC[C@@H]3CCCC[C@H](NC(=O)c4cc5cc(C(F)(F)P(=O)(O)O)ccc5s4)C(=O)N32)C[C@H]1c1ccccc1 (single isomer, unassigned) [Compound 22, ((2-(((3S,6S,10aS)-3-((3S,4R or 3R,4S))-3-cyano-4-phenylpyrrolidine-1-carbonyl)-5-oxodecahydropyrrolo [1,2-a]azocin-6-yl)carbamoyl)benzo[b]thiophen-5-yl) difluoromethyl) phosphonic acid]
- IC50 [1, 3]: 1000 to 10000 nM
- IC50 [2, 4]: ≤ 300 nM

Structure (SMILES): C/C1=C/[C@H]2CC[C@@H](C(=O)N3CC(c4cnccc4C)C3)N2C(=O)[C@@H](NC(=O)c2cc3cc(CP(=O)(O)O)ccc3s2)CC1 [Compound 644, ((2-(((3S,6S,10aR,Z)-9-methyl-3-(3-(4-methylpyridin-3-yl)azetidine-1-carbonyl)-5-oxo-1,2,3,5,6,7,8,10a-octahydropyrrolo[1,2-a]azocin-6-yl)carbamoyl)benzo [b]thiophen-5-yl)methyl) phosphonic acid]
- IC50 [1, 5]: 100 to 1000 nM
- IC50 [2, 6]: 3000 to 30000 nM

Structure (SMILES): O=C(N[C@H]1CCCC[C@H]2CC[C@@H](C(=O)N3CCC(c4cccnc4)C3)N2C1=O)c1cc2cc(C(F)P(=O)(O)O)ccc2s1 (stereo partly drawn) [Compound 223, (fluoro(2-(((3S,6S,10aS)-5-oxo-3-(3-(pyridin-3-yl)pyrrolidine-1-carbonyl)decahydropyrrolo[1,2-a]azocin-6-yl)carbamoyl)benzo[b]thiophen-5-yl)methyl)phosphonic acid]
- IC50 [1, 5]: 100 to 1000 nM
- IC50 [2, 6]: 300 to 3000 nM

Structure (SMILES): C[C@H]1C[C@H]2CC[C@@H](C(=O)N3CC(c4cnccc4N(C)C)C3)N2C(=O)[C@@H](NC(=O)c2cc3cc(CP(=O)(O)O)ccc3s2)C1 [Compound 638, ((2-(((3S,6S,8R,9aR)-3-(3-(4-(dimethylamino)pyridin-3-yl)azetidine-1-carbonyl)-8-methyl-5-oxooctahydro-1H-pyrrolo[1,2-a]azepin-6-yl)carbamoyl)benzo [b]thiophen-5-yl)methyl) phosphonic acid]
- IC50 [1, 5]: < 100 nM
- IC50 [2, 6]: 3000 to 30000 nM

Structure (SMILES): CC(c1cc[nH]c(=O)c1)N(C)C(=O)[C@@H]1CC[C@@H]2CCCC[C@H](NC(=O)c3cc4cc(C(F)(F)P(=O)(O)O)ccc4s3)C(=O)N21 (stereo partly drawn) [Compound 791, (difluoro(2-(((3S,6S,10aS)-3-(methyl(1-(2-oxo-1,2-dihydropyridin-4-yl)ethyl)carbamoyl)-5-oxodecahydropyrrolo [1,2-a]azocin-6-yl)carbamoyl)benzo [b]thiophen-5-yl)methyl) phosphonic acid]
- IC50 [1, 5]: 100 to 1000 nM
- IC50 [2, 6]: 300 to 3000 nM

Structure (SMILES): O=C(N[C@H]1CCCC[C@H]2CC[C@@H](C(=O)NCc3ccn[nH]3)N2C1=O)c1cc2cc(C(F)(F)P(=O)(O)O)ccc2s1 [Compound 726, ((2-(((3S,6S,10aS)-3-(((212-pyrazol-3-yl)methyl)carbamoyl)-5-oxodecahydropyrrolo [1,2-a]azocin-6-yl)carbamoyl)benzo [b]thiophen-5-yl)difluoromethyl) phosphonic acid]
- IC50 [1, 5]: 100 to 1000 nM
- IC50 [2, 6]: 3000 to 30000 nM

Structure (SMILES): O=C(N[C@H]1C[C@H](OCc2ccccc2)CC[C@H]2CC[C@@H](C(=O)N3CC(C(=O)N4CCOCC4)C3)N2C1=O)c1cc2cc(C(F)(F)P(=O)(O)O)ccc2s1 [Compound 7, ((2-(((3S,6S,8R, 10aR)-8-(benzyloxy)-3-(3-(morpholine-4-carbonyl)azetidine-1-carbonyl)-5-oxodecahydropyrrolo [1,2-a]azocin-6-yl)carbamoyl)benzo[b]thiophen-5-yl)difluoromethyl) phosphonic acid]
- IC50 [1, 3]: 100 to 1000 nM
- IC50 [2, 4]: 3000 to 30000 nM

Structure (SMILES): O=C(N[C@H]1CCC[C@H]2CC[C@@H](C(=O)N3CC(C4COC4)C3)N2C1=O)c1cc2cc(C(F)(F)P(=O)(O)O)ccc2s1 [Compound 785, (difluoro(2-(((3S,6S,9aS)-3-(3-(oxetan-3-yl)azetidine-1-carbonyl)-5-oxooctahydro-1H-pyrrolo[1,2-a]azepin-6-yl)carbamoyl)benzo [b]thiophen-5-yl)methyl) phosphonic acid]
- IC50 [1, 5]: 100 to 1000 nM
- IC50 [2, 6]: 3000 to 30000 nM

Structure (SMILES): O=C(N[C@H]1CC[C@@H](OCc2ccccc2)C[C@H]2CC[C@@H](C(=O)N3CC(C(=O)N4CCOCC4)C3)N2C1=O)c1cc2cc(C(F)(F)P(=O)(O)O)ccc2s1 [Compound 6, ((2-(((3S,6S,9R,10aR)-9-(benzyloxy)-3-(3-(morpholine-4-carbonyl)azetidine-1-carbonyl)-5-oxodecahydropyrrolo [1,2-a]azocin-6-yl)carbamoyl)benzo[b]thiophen-5-yl)difluoromethyl) phosphonic acid]
- IC50 [1, 3]: 100 to 1000 nM
- IC50 [2, 4]: 3000 to 30000 nM

Structure (SMILES): COc1ccncc1C1CN(C(=O)[C@@H]2CC[C@@H]3C[C@@H](C)C[C@H](NC(=O)c4cc5cc([C@H](F)P(=O)(O)O)ccc5s4)C(=O)N32)C1 [Compound 749, ((R)-fluoro(2-(((3S,6S,8S,9aR)-3-(3-(4-methoxypyridin-3-yl)azetidine-1-carbonyl)-8-methyl-5-oxooctahydro-1H-pyrrolo[1,2-a]azepin-6-yl)carbamoyl)benzo [b]thiophen-5-yl)methyl) phosphonic acid]
- IC50 [1, 5]: < 100 nM
- IC50 [2, 6]: 3000 to 30000 nM

Structure (SMILES): O=C(N[C@H]1CCC[C@H]2CC[C@@H](C(=O)N3CC(c4cnccn4)C3)N2C1=O)c1cc2cc(C(F)(F)P(=O)(O)O)ccc2s1 [Compound 797, (difluoro(2-(((3S,6S,9aS)-5-oxo-3-(3-(pyrazin-2-yl)azetidine-1-carbonyl)octahydro-1H-pyrrolo[1,2-a]azepin-6-yl)carbamoyl)benzo [b]thiophen-5-yl)methyl) phosphonic acid]
- IC50 [1, 5]: 100 to 1000 nM
- IC50 [2, 6]: 3000 to 30000 nM

Structure (SMILES): CC1(C)C[C@H](c2ccccc2)CN1C(=O)[C@@H]1CC[C@@H]2CCCC[C@H](NC(=O)c3cc4cc(C(F)(F)P(=O)(O)O)ccc4s3)C(=O)N21 [Compound 815, ((2-(((3S,6S,10aS)-3-((R)-2,2-dimethyl-4-phenylpyrrolidine-1-carbonyl)-5-oxodecahydropyrrolo [1,2-a]azocin-6-yl)carbamoyl)benzo [b]thiophen-5-yl)difluoromethyl) phosphonic acid]
- IC50 [1, 5]: 1000 to 10000 nM
- IC50 [2, 6]: 300 to 3000 nM

Structure (SMILES): CN(C)S(=O)(=O)N1CCN(C(=O)[C@@H]2CC[C@@H]3CCCC[C@H](NC(=O)c4cc5cc(C(F)(F)P(=O)(O)O)ccc5s4)C(=O)N32)CC1 [Compound 87, ((2-(((3S,6S,10aS)-3-(4-(N,N-dimethylsulfamoyl)piperazine-1-carbonyl)-5-oxodecahydropyrrolo [1,2-a]azocin-6-yl)carbamoyl)benzo[b]thiophen-5-yl)difluoromethyl) phosphonic acid]
- IC50 [1, 3]: 100 to 1000 nM
- IC50 [2, 4]: 300 to 3000 nM

Structure (SMILES): N#Cc1cccc(C2CN(C(=O)[C@@H]3CC[C@@H]4CCC[C@H](NC(=O)c5cc6cc(C(F)P(=O)(O)O)ccc6s5)C(=O)N43)C2)n1 (stereo partly drawn) [Compound 526]
- IC50 [1, 5]: < 100 nM
- IC50 [2, 6]: 3000 to 30000 nM

Structure (SMILES): O=C(N[C@H]1CCC[C@H]2CC[C@@H](C(=O)N3CC(c4cccnc4)C3)N2C1=O)c1cc2cc(CP(=O)(O)O)ncc2s1 [Compound 574, ((2-(((3S,6S,9aS)-5-oxo-3-(3-(pyridin-3-yl)azetidine-1-carbonyl)octahydro-1H-pyrrolo[1,2-a]azepin-6-yl)carbamoyl)thieno[2,3-c]pyridin-5-yl)methyl)phosphonic acid]
- IC50 [1, 5]: 1000 to 10000 nM
- IC50 [2, 6]: 3000 to 30000 nM

Structure (SMILES): N#C[C@@H]1CN(C(=O)[C@@H]2CC[C@@H]3CCCC[C@H](NC(=O)c4cc5cc([C@H](F)P(=O)(O)O)ccc5s4)C(=O)N32)C[C@H]1c1cc[nH]c(=O)c1 (single isomer, unassigned) [Compound 872]
- IC50 [1, 5]: 100 to 1000 nM
- IC50 [2, 6]: ≤ 300 nM

Structure (SMILES): CC1C(c2cccnc2)CN1C(=O)[C@@H]1CC[C@@H]2CCC[C@H](NC(=O)c3cc4cc(C(F)P(=O)(O)O)ccc4s3)C(=O)N21 (stereo partly drawn) [Compound 602, (fluoro(2-(((3S,6S,9aS)-3-(2-methyl-3-(pyridin-3-yl)azetidine-1-carbonyl)-5-oxooctahydro-1H-pyrrolo[1,2-a]azepin-6-yl)carbamoyl)benzo [b]thiophen-5-yl)methyl) phosphonic acid]
- IC50 [1, 5]: < 100 nM
- IC50 [2, 6]: 3000 to 30000 nM
